Laboratory results taken from patent publication US6964958B2, “Method of simultaneously treating sensory auditory gating deficit and associated psychosis in schizophrenia and bipolar disorder patients with mania” (priority 2001, dated 2005).

Legend:
[1] = test system: heterozygous reeler mice (HRM); experiment: Prepulse inhibition of startle (PPI) in heterozygous reeler mice; type: in vivo, mouse; conditions: for auditory PPI deficit in HRM: heterozygous reeler mice, subcutaneous, imidazenil 0.3, 0.6 mg/kg, 115 db startle, 75 or 80 db prepulse
Source text: (§1) The startle apparatus (SR-Lab, San Diego Instruments) consisted of a Plexiglas cylinder resting on a Plexiglas frame within a ventilated soundproof enclosure. Acoustic noise bursts were presented by. speaker 24 cm above the animal. and a piezo-electric device transduced any consequent motion (flinch) within the cylinder. Two stimulus trial types 1) 115 db startle stimulus only; or 2) 115 db stimulus preceded by a 75 or 80 db prepulse 100 msec before startle simulut onset were randomly presented with a mean intertrial interval of 20 sec. Stimuli were 30 msec in duration and were presented over a constant 65 db white noise background also present during a 5-min adaptation period.
(§2) Mean peak amplitude of the flinch response within a 200 msec window following presentation of the 115 db stimulus was calculated separately for each type of startle trial. Ratios reflecting the amount of inhibition due to the prepulse were calculated by dividing the difference between mean amplitude for startle and prepulse trials by the mean for the startle trials. PPI data are commonly presented in this ratio form to control for overall level of the startle reflex itself.
Imidazenil or alprazolam was dissolved in DMSO, combined with oil, and injected subcutaneously at a volume of 0.1 ml/10 gm of body weight. The amount of DMSO was approximately 1% of total volume. Vehicle was prepared similarly and vehicle or drug was administered in counterbalanced order using a within-subject design. Following drug administration, the mouse was placed in an isolated cage for 10-15 min before being placed in the startle apparatus. Animals were tested between 11:00 hr and 15:00 hr.

[2] = FIG. 1 dose-response comparison; cited from earlier work
wild-type mice (WTM) = experiment: Prepulse inhibition of startle (PPI) in wild-type mice; type: in vivo, mouse; conditions: subcutaneous, 115 db startle, 75 or 80 db prepulse
Source text: as §1, §2
Imidazenil or alprazolam was dissolved in DMSO, combined with oil, and injected subcutaneously at a volume of 0.1 ml/10 gm of body weight. The amount of DMSO was approximately 1% of total volume. […]

[3] = in nonhuman primates; cited from earlier work
rats = conditions: doses up to 60-fold greater than doses producing anxiolytic and anticonvulsant actions; cited from earlier work
GABAA receptors = conditions: cited from earlier work
patas monkeys = conditions: cited from earlier work
[4] = test system: benzodiazepines binding sites; conditions: cited from earlier work

## Cc1nnc2n1-c1ccc(Cl)cc1C(c1ccccc1)=NC2 [alprazolam, 8chloro-1-methyl-6-phenyl-4-[1,2,4]triazolo[4,3a][1-4]benzodiazepine, reference compound]
[1]
  auditory PPI deficit in HRM: failed to revert the PPI deficit in HRM
[2]
  sedation, amnesia, tolerance and dependence liability relative to doses with anxiolytic and anticonvulsant (therapeutic) actions: appear with doses that are very close to those that cause anxiolytic and anticonvulsant actions
wild-type mice (WTM)
  PPI of WTM: decreased PPI in WTM

## NC(=O)c1ncn2c1CN=C(c1ccccc1Br)c1cc(F)ccc1-2 [imidazenil, 6-(2 bromophenyl)-8-fluoro-4H-imidazo[1,5a][1,4]benzodiazepine-3-carboxamide]
[3]
  T 1/2 (clearance rate): > 6 h
[1]; doses of imidazenil (0.3, 0.6 mg/kg) that correct the PPI deficit in HRM
  overall startle level (sedative effect): fail to change the overall startle level
[1]
  auditory PPI deficit in HRM: corrected the auditory PPI deficit in HRM
rats
  antagonism of sedative and amnestic actions of alprazolam: antagonizes the sedative and amnestic actions of alprazolam
GABAA receptors; GABAA receptors containing alpha1 subunit
  action on GABAA alpha1 subunit: does not act on GABAA α1 subunit
GABAA receptors; at least eight subtypes of GABAA receptors tested
  efficacy at GABAA receptor subtypes: partial agonist
GABAA receptors
  intensity of GABA-gated Cl- currents: never maximizes the intensity of GABA-gated Cl^− currents
[2]
  sedation, amnesia, tolerance and dependence liability relative to doses with anxiolytic and anticonvulsant (therapeutic) actions: virtually undetectable
wild-type mice (WTM)
  PPI of WTM: no primary effects on the PPI of WTM
Patas monkeys; monkeys, doses up to 60-fold greater than doses producing anxiolytic and anticonvulsant actions
  antagonism of sedative and amnestic actions of alprazolam: antagonizes the sedative and amnestic actions of alprazolam
Patas monkeys; patas monkeys, seventeen day treatment
  tolerance to the effects during treatment: no tolerance
[4]
  affinity for benzodiazepines binding sites: high affinity
